Measurements published in the NIST ThermoML archive (doi:10.1021/je0202073).

Tests used:
[1] = Liquid; for vapor or sublimation pressure: ebulliometry
[2] = refractive index (Na D-line) (dimensionless); details: 303.15 K; 101.33 kPa; Liquid; Standard Abbe refractometry

CC(C)(C)O [2-methylpropan-2-ol]
Details | mass density [kg/m3]
[1], 303.15 K, 101.33 kPa, vibrating tube | 775.37

[1]
Details | vapor or sublimation pressure [kPa]
332.3 K | 37.4
333.03 K | 38.69
333.45 K | 39.34
334.6 K | 41.37
335.29 K | 42.93
335.87 K | 43.85
336.43 K | 45.01
337.17 K | 46.69
337.8 K | 48.06
338.37 K | 49.27
338.86 K | 50.27
339.5 K | 51.81
340.08 K | 53.17
340.59 K | 54.25
341.17 K | 55.83
341.63 K | 56.78
342.18 K | 58.37
342.68 K | 59.61
343.13 K | 60.61
343.7 K | 62.3
344.13 K | 63.27
344.68 K | 64.99
345.06 K | 65.81
345.49 K | 67.05
346.11 K | 69.05
346.51 K | 70.21
346.83 K | 71.11
347.28 K | 72.45
347.68 K | 73.43
348.2 K | 75.35
348.54 K | 76.17
348.9 K | 77.42
349.34 K | 78.76
349.74 K | 80.07
350.1 K | 81.3
350.53 K | 82.71
350.9 K | 83.96
351.33 K | 85.66
351.67 K | 86.64
352.05 K | 88.15
352.45 K | 89.39
352.8 K | 90.67
353.13 K | 92.07
353.5 K | 93.39
353.81 K | 94.63
354.18 K | 95.95
354.51 K | 97.04
354.85 K | 98.36
355.23 K | 100.07
355.5 K | 100.88
355.58 K | 101.32
355.83 K | 102.22
356.22 K | 103.92
356.52 K | 105.27
356.86 K | 106.62
357.15 K | 107.71
357.45 K | 109.12
357.77 K | 110.47
358.06 K | 111.51
358.35 K | 112.83
358.68 K | 114.36
358.96 K | 115.48
359.27 K | 117
359.84 K | 119.53
360.13 K | 120.87
360.46 K | 122.36
360.64 K | 123.08
360.97 K | 124.73
361.26 K | 126.15
361.47 K | 126.96
361.73 K | 128.2
362.02 K | 129.63
362.54 K | 132.15
362.75 K | 133.36
363.03 K | 134.71
363.08 K | 134.81
363.56 K | 137.4
363.82 K | 138.8
364.09 K | 140.03
364.33 K | 141.29
364.66 K | 142.96
365.09 K | 145.34
365.27 K | 146.36
365.62 K | 148.18
366.1 K | 150.66
366.51 K | 153.08
366.81 K | 154.69
367.08 K | 156.16
367.49 K | 158.58
367.83 K | 160.39
368.23 K | 162.82

Details | refractive index
[2] | 1.382
